Experimental data as given in PubChem BioAssay AID330 (DTP/NCI, 2004).
Values joined by “and” are separate entries in the source; they are usually repeats but may differ in a detail not shown here. Equal entries are not always repeated. Inconclusive results and toxic doses are left out. The calls were made as follows: active = survival T/C of 150% or more; inactive = T/C below 125% in these data.

System: P388 leukemia ip, CD2F1 mice, survival T/C
Assay: NCI In Vivo Anticancer Drug Screen. Data for tumor model P388 Leukemia (intraperitoneal) in CD2F1 (CDF1) mice
Details: endpoint: median survival time, higher = longer survival
Summary of the method: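 Mice carrying the transplanted tumor received test compound or vehicle. Survival was recorded in each group, and the value is the treated-group measurement divided by that of the vehicle-treated control group.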

[1] = dose: 50.0 mg/kg/injection, schedule: Q01DX009 (ip), vehicle: saline
[2] = dose: 100.0 mg/kg/injection, schedule: Q01DX009 (ip), vehicle: saline
[3] = dose: 200.0 mg/kg/injection, schedule: Q01DX009 (ip), vehicle: saline
[4] = dose: 60.0 mg/kg/injection, schedule: Q01DX005 (ip), vehicle: saline with Tween-80
[5] = dose: 120.0 mg/kg/injection, schedule: Q01DX005 (ip), vehicle: saline with Tween-80
[6] = dose: 240.0 mg/kg/injection, schedule: Q01DX005 (ip), vehicle: saline with Tween-80
[7] = dose: 100.0 mg/kg/injection, schedule: Q04DX003 (ip), vehicle: saline

Measured: T/C

CN(C)P(=O)(N(C)C)N1CCCC1
inactive: [1] 104 % of control | [2] 106 % of control | [3] 105 % of control

COC(=O)CC1(C(=O)OC)C2=C(CCC2)N2CCCC21 (stereo unspecified)
inactive: dose: 12.5 mg/kg/injection, schedule: Q01DX009 (ip), vehicle: Klucel (hydroxypropylcellulose) (HPC) 101 % of control | dose: 25.0 mg/kg/injection, schedule: Q01DX009 (ip), vehicle: Klucel (hydroxypropylcellulose) (HPC) 103 % of control | dose: 50.0 mg/kg/injection, schedule: Q01DX009 (ip), vehicle: Klucel (hydroxypropylcellulose) (HPC) 97 % of control | dose: 100.0 mg/kg/injection, schedule: Q01DX009 (ip), vehicle: Klucel (hydroxypropylcellulose) (HPC) 93 % of control

O=C1CCCC2=C1C(c1ccc(Cl)c(Cl)c1)C1=C(CCCC1=O)O2
inactive: [4] 95 % of control | [5] 95 % of control | [6] 94 % of control

CNc1nc2cc(OC)c(OC)cc2c(=O)[nH]1
inactive: dose: 15.0 mg/kg/injection, schedule: Q01DX005 (ip), vehicle: saline with Tween-80 98 % of control | dose: 30.0 mg/kg/injection, schedule: Q01DX005 (ip), vehicle: saline with Tween-80 94 % of control | [4] 91 % of control and 98 % of control | [5] 100 % of control

NC(=O)c1sc(N2CCCC2)nc1N
inactive: [4] 112 % of control | [5] 105 % of control | [6] 118 % of control

O=C(O)C(=O)c1ccc(-c2ccccc2)cc1
inactive: dose: 50.0 mg/kg/injection, schedule: Q04DX003 (ip), vehicle: saline 104 % of control | [7] 100 % of control

CCOC(=O)CCCCCOCOC
inactive: dose: 100.0 mg/kg/injection, schedule: Q01DX001 (ip), vehicle: saline with Tween-80 106 % of control | dose: 200.0 mg/kg/injection, schedule: Q01DX001 (ip), vehicle: saline with Tween-80 98 % of control | dose: 400.0 mg/kg/injection, schedule: Q01DX001 (ip), vehicle: saline with Tween-80 106 % of control

O=C(Nc1ccc2c(O)c(N=Nc3ccc(N=Nc4ccc(S(=O)(=O)O)cc4)cc3)c(S(=O)(=O)O)cc2c1)c1ccccc1
inactive: [1] 100 % of control | [2] 95 % of control | [3] 103 % of control

COc1cc([N+](=O)[O-])cc(/C=C(\C)C2SC(C)(C)C(C)CN2C)c1O (stereo unspecified)
inactive: dose: 100.0 mg/kg/injection, schedule: Q04DX003 (ip), vehicle: saline with Tween-80 109 % of control | dose: 200.0 mg/kg/injection, schedule: Q04DX003 (ip), vehicle: saline with Tween-80 103 % of control | dose: 400.0 mg/kg/injection, schedule: Q04DX003 (ip), vehicle: saline with Tween-80 100 % of control

O=C(O)CC(Cc1ncnc2c1ncn2C1OC(CO)C(O)C1O)C(=O)O (stereo unspecified)
inactive: [7] 100 % of control | dose: 200.0 mg/kg/injection, schedule: Q04DX003 (ip), vehicle: saline 99 % of control | dose: 400.0 mg/kg/injection, schedule: Q04DX003 (ip), vehicle: saline 99 % of control

O=C1OC2C(COC(=O)c3cc(O)c(O)c(O)c3)OC(OC(=O)c3cc(O)c(O)c(O)c3)C(OC(=O)c3cc(O)c(O)c4c3C3C1=CC(=O)[C@](O)(O4)C3(O)O)C2OC(=O)c1cc(O)c(O)c(O)c1 (stereo partly specified)
inactive: dose: 6.25 mg/kg/injection, schedule: Q01DX009 (ip), vehicle: saline 98 % of control | dose: 12.5 mg/kg/injection, schedule: Q01DX009 (ip), vehicle: saline 99 % of control | dose: 25.0 mg/kg/injection, schedule: Q01DX009 (ip), vehicle: saline 98 % of control

Nc1ccc2c(NCCCCCCCCNc3c4ccccc4nc4cc(N)ccc34)c3ccccc3nc2c1
active: dose: 1.25 mg/kg/injection, schedule: Q01DX009 (ip), vehicle: other 158 % of control | dose: 2.5 mg/kg/injection, schedule: Q01DX009 (ip), vehicle: other 150 % of control | dose: 5.0 mg/kg/injection, schedule: Q01DX009 (ip), vehicle: other 151 % of control

ClCCN1c2ccc3ccccc3c2Sc2c1ccc1ccccc21
inactive: dose: 50.0 mg/kg/injection, schedule: Q01DX005 (ip), vehicle: saline with Tween-80 96 % of control | dose: 100.0 mg/kg/injection, schedule: Q01DX005 (ip), vehicle: saline with Tween-80 92 % of control | dose: 200.0 mg/kg/injection, schedule: Q01DX005 (ip), vehicle: saline with Tween-80 97 % of control

COc1ccc(CCNC(=O)CC2CCN(Cc3ccccc3)CC2)cc1OC
inactive: dose: 50.0 mg/kg/injection, schedule: Q01DX005 (ip), vehicle: Klucel (hydroxypropylcellulose) (HPC) 100 % of control | dose: 100.0 mg/kg/injection, schedule: Q01DX005 (ip), vehicle: Klucel (hydroxypropylcellulose) (HPC) 100 % of control | dose: 200.0 mg/kg/injection, schedule: Q01DX005 (ip), vehicle: Klucel (hydroxypropylcellulose) (HPC) 95 % of control

COC(=O)C(=Cc1ccc(OC)cc1)C(=O)OC
inactive: [1] 95 % of control | [2] 95 % of control | [3] 92 % of control
